These results are taken from patent publication US20230129258A1, “HETEROTANDEM BICYCLIC PEPTIDE COMPLEXES” (BicycleTx Limited, priority 2019, published 2023).

The subject of series [1] is MC38 #13 tumors. Nature of the series: Re-inoculation of complete responders with MC38 #13 cells (immunogenic memory). The series is classed as in vivo, C57BL/6J-hCD137 mice. The settings on record: re-inoculated day 69 with 1x10^6 MC38 #13 cells; 22 days observation. An excerpt:
On day 69, 5 animals that had responded completely to BCY11863 treatment were re-inoculated with 1×10^6 MC38 #13-cells. A cohort of 5 naïve C57BL/6J-hCD137 female mice were inoculated with 1×10^6 MC38 #13-cells as a control.

The nature of series [2]: Pharmacokinetic profiles in plasma and tumor tissue of CT26 #7 tumor bearing animals. In kind it is in vivo, BALB/c mice. The settings on record: female, BALB/c, mouse, single iv 5 mg/kg. On the procedure: 6-8 weeks old BALB/c female mice were inoculated in the flank with 3×10^5 syngeneic Nectin-4 overexpressing CT26 cells (CT26 #7). When tumors reached around 400 mm^3 size on average, mice were randomized to receive a single intravenous dose of vehicle or 5 mg/kg BCY11863. A cohort of mice (n=3/timepoint) were sacrificed at 0.25, 0.5, 1, 2, 4, 8 and 24 h timepoints and harvested plasma and tumor tissue were analyzed for BCY11863. For tumor BCY11863 content analysis, tumor homogenate was prepared by homogenizing tumor tissue with 10 volumes (w:v) of homogenizing solution (MeOH/15 mM PBS (1:2, v:v)). 40 μL of sample was quenched with 200 μL IS1 and the mixture was mixed by vortexing for 10 min at 800 rpm and centrifuged for 15 min at 3220 g at 4° C. The supernatant was transfer to another clean 96-well plate and centrifuged for 5 min at 3220 g at 4° C., and 10.0 μL of supernatant was then injected for LC-MS/MS analysis using an Orbitrap Q Exactive in positive ion mode to determine the concentrations of analyte. For plasma BCY11863 content analysis, blood samples were collected in K2-EDTA tubes and immediately processed to plasma by centrifugation at approximately 4° C., 3000 g. 40 μL of plasma sample was quenched with 200 μL IS1 and the mixture was mixed by vortexing for 10 min at 800 rpm and centrifuged for 15 min at 3220 g at 4° C. […]

The subject of series [3] is MC38 #13 tumors. Kind of series: Anti-tumor activity in syngeneic Nectin-4 overexpressing MC38 tumor model (MC38 #13). In kind it is in vivo, C57BL/6J-hCD137 mice. The settings on record: for complete tumor responses: day 15; for complete responders: day 52, IV. On the procedure: 6-8 weeks old C57BL/6J-hCD137 female mice were inoculated in the flank with 1×10^6 syngeneic Nectin-4 overexpressing MC38 cells (MC38 #13). When tumors reached 72 mm^3 size on average, mice were randomized to receive vehicle or BCY11863 (intraperitoneal administration). BCY11863 was administered (n=6 mice/treatment cohort) at either 1 mg/kg or 10 mg/kg either daily (QD) or every three days (Q3D). QD dosed mice received 16 doses of BCY11863 and Q3D dosed mice received […] of BCY11863. Tumor growth was monitored by caliper measurements until day 69 after treatment initiation. […] By day 48, 22 out of 24 BCY11863-treated animals had responded to the treatment completely and had no palpable tumors remaining.
6-8 week old female C57BL/6J-hCD137 mice [B-hTNFRSF9(CD137) mice; Biocytogen] were implanted subcutaneously with 1×10^6 MC38 #13 (MC38 cells engineered to overexpress murine Nectin-4) cells. Mice were randomized into treatment groups (n=6/cohort) when average tumor volumes reached around 95 mm^3 and were treated with a weekly dose of vehicle (25 mM histidine, 10% sucrose, pH7) or 10 mg/kg BCY11863 with two different dosing schedules for two dosing cycles (5 mg/kg BCY11863 at 0 h and 24 h on DO and D7, or 10 mg/kg at 0 h on DO and D7). All treatments were administered intravenously (IV). Tumor growth was monitored until Day 15 from treatment initiation.
At 3 weekly doses of 3, 10 and 30 mg/kg with dose fractionated weekly, biweekly and daily 6-8 week old female C57BL/6J-hCD137 mice [B-hTNFRSF9(CD137) mice; Biocytogen] were implanted subcutaneously with 1×10^6 MC38 #13 (MC38 cells engineered to overexpress murine Nectin-4) cells. Mice were randomized into treatment groups (n=6/cohort) when average tumor volumes reached around 107 mm^3 and were treated with 21 daily doses of vehicle (25 mM histidine, 10% sucrose, pH7). BCY11863 treatment was done at three different total dose levels (3, 10 and 30 mg/kg total weekly dose) fractionated in three different schedules (QD: daily; BIW: twice a week or QW: weekly). Different BCY11863 treatment cohorts received either 21 daily doses (0.43, 1.4 or 4.3 mg/kg), 6 twice weekly doses (1.5, 5 or 15 mg/kg) or 3 weekly doses (3, 10 or 30 mg/kg). All treatments were administered intravenously (IV). Tumor growth was monitored until tumor reached volumes over 2000 mm^3 or until 31 days after treatment initiation. Complete responders (animals with no palpable tumors) were followed until D52.

The test system of the next series is CT26 #7 tumors. Kind of series: Anti-tumor activity in syngeneic Nectin-4 overexpressing CT26 tumor model (CT26 #7). In kind it is in vivo, BALB/c-hCD137 mice. Conditions: 5 mg/kg ip Q3D, 6 doses; from day 7 forward. On the procedure:
6-8 weeks old BALB/c-hCD137 female mice were inoculated in the flank with 3×10^5 syngeneic Nectin-4 overexpressing CT26 cells (CT26 #7). When tumors reached around 70 mm^3 size on average, mice were randomized to receive vehicle or 5 mg/kg BCY11863 intraperitoneally every three days (6 doses total). Tumor growth was monitored by caliper measurements until day 14 after treatment initiation.

SMILES strings stand for the structures. Entries after “also recorded” stand apart in the source; their conditions may differ. Like-named read-outs stand apart in the source and are kept apart here.

For `CCCC[C@@H]1NC(=O)[C@H](Cc2ccc(O)cc2)NC(=O)[C@@H]2CCCN2C(=O)[C@H](CC(=O)O)NC(=O)[C@H](C)NC(=O)[C@H](Cc2ccccc2)NC(=O)[C@@H]2CSCCC(=O)N3CN(CN(C3)C(=O)CCSC[C@@H](C(=O)N[C@@H](C)C(N)=O)NC1=O)C(=O)CCSC[C@H](NC(C)=O)C(=O)N[C@@H](CC(C)(C)C)C(=O)N1CCC[C@H]1C(=O)N[C@@H](CCC(=O)O)C(=O)N[C@H](CCCCNC(=O)CCc1cn(CCOCCOCCOCCN(CCOCCOCCOCCC(=O)N[C@H]3CSCCC(=O)N4CN5CN(C4)C(=O)CCSC[C@H](NC(=O)[C@@H](CC(=O)O)NC(=O)[C@H](Cc4cccc6ccccc46)NC(=O)[C@@H]4CCCN4C3=O)C(=O)N[C@@H](CCSC)C(=O)N[C@@H](CCCCNC(=N)N)C(=O)N[C@@H](CC(=O)O)C(=O)N[C@@H](Cc3c[nH]c4ccccc34)C(=O)N[C@@H](CO)C(=O)N[C@@H]([C@@H](C)O)C(=O)N3CCC[C@H]3C(=O)N3C[C@H](O)C[C@H]3C(=O)N[C@@H](Cc3c[nH]c4ccccc34)C(=O)N[C@H](C(N)=O)CSCCC5=O)CCOCCOCCOCCn3cc(CCC(=O)NCCCC[C@H]4NC(=O)[C@H](CCC(=O)O)NC(=O)[C@@H]5CCCN5C(=O)[C@H](CC(C)(C)C)NC(=O)[C@@H](NC(C)=O)CSCCC(=O)N5CN6CN(C5)C(=O)CCSC[C@H](NC(=O)[C@H](Cc5ccc(O)cc5)NC(=O)[C@@H]5CCCN5C4=O)C(=O)N[C@@H](Cc4ccccc4)C(=O)N[C@@H](C)C(=O)N[C@@H](CC(=O)O)C(=O)N4CCC[C@H]4C(=O)N[C@@H](Cc4ccc(O)cc4)C(=O)N[C@@H](CCCC)C(=O)N[C@H](C(=O)N[C@@H](C)C(N)=O)CSCCC6=O)nn3)nn1)C(=O)N1CCC[C@H]1C(=O)N[C@@H](Cc1ccc(O)cc1)C(=O)N2` [BCY11863], in the series with MC38 #13 tumors [1], the “tumor development after re-inoculation of complete responders” value is “none of the CR mice developed tumors; also recorded: none of the inoculated complete responder mice developed tumors”. Besides, the half-life in series [2] (plasma, read-out: plasma T1/2 (converted)) was 1.65 h; in series [2] (tumor tissue, read-out: tumor T1/2 (converted)) it was 13.4 h. Besides, the tumor growth result in the series with MC38 #13 tumors [3] (1 or 10 mg/kg, QD or Q3D, ip, p<0.05 vs vehicle, 2 cohorts by day 7, all by day 14) was “significant reduction”; in the series on CT26 #7 tumors, “significantly (p<0.0001, Student's t-test) reduced the tumor growth”. The “animals responded completely, no palpable tumors” value with MC38 #13 tumors [3] (by day 48, all cohorts, 1 or 10 mg/kg, QD or Q3D, ip) is reported as 22 out of 24. For the same compound, the complete tumor responses is recorded as 4 out of 6 in the series on MC38 #13 tumors [3] (5 mg/kg at 0 h and 24 h on D0 and D7, IV); “one out of 6” with MC38 #13 tumors [3] (10 mg/kg at 0 h on D0 and D7, IV). For the same compound, the complete responders with MC38 #13 tumors [3] (5 mg/kg BIW) is listed as 6/6; with MC38 #13 tumors [3] (BIW (1.5, 5 or 15 mg/kg)), 15/18; with MC38 #13 tumors [3] (QD (0.43, 1.4 or 4.3 mg/kg)), 12/18; with MC38 #13 tumors [3] (QW (3, 10 or 30 mg/kg)), 6/18.
